Results taken from patent US7741283B2, “Compositions and methods for inhibiting cell proliferation” (St. Louis University, priority 2003, dated 2010).
Entries after “also recorded” stand apart in the source; their conditions may differ.

What was measured:
IRS-2 [1] = assay: 32P metabolic labeling and immunoprecipitation of IRS-2, MB102-16 cells; assay type: cell-based, mink; conditions: MB102-16 cells (αIβI); IGFBP-3 1 μg/ml, GM-CSF 1 nM
IRS-2 [2] = assay: 32P metabolic labeling and immunoprecipitation of IRS-2, MB102-9 cells; assay type: cell-based, mink; conditions: MB102-9 cells (αIβII); IGFBP-3 1 μg/ml, GM-CSF 1 nM
[3] = tested on: TβR-V purified from bovine liver plasma membranes; assay: 125I-IGFBP-3 / 125I-TGF-β1 affinity labeling of purified TβR-V; assay type: binding; conditions: DSS, β1^25(41-65) 20 μM, RAP 10-40 μg/ml, α2M* 100 nM, lactoferrin 100 nM
TβR-V = assay: 125I-ligand affinity labeling (binding and cross-linking) in Mv1Lu cells; set-up: species or system mink
Method: FIG. 2 depicts the effects of RAP on ^125I-IGFBP-3 (A) and ^125I-TGF-β1 binding (B) to TβR-V and on IGFBP-3-induced inhibition of DNA synthesis (C) in Mv1Lu cells. (A,B) Cells were incubated with ^125I-IGFBP-3 (10 nM) or ^125I-TGF-β1 (0.1 nM) in the presence of various concentrations of RAP as indicated. After 2.5 hr at 0° C., the ^125I-IGFBP-3-TβR-V complex or ^125I-TGF-β1-TGF-β receptor complexes were cross-linked by DSS and analyzed by autoradiography. The relative intensity of the ^125I-IGFBP-3-TβR-V complex or ^125I-TGF-β1-TGF-β receptor complex on the dried gel was quantified by a PhosphoImager. The arrow indicates the location of the ^125I-TGF-β-TβR-V complex or the ^125I-IGFBP-3-TβR-V complex. The bracket indicates the locations of the ^125I-TGF-β1-TβR-III and -TβR-II complexes. The ^125I-TGF-β1-TβR-I complex co-migrated with the dye front. The ^125I-TGF-β1-TβR-II complex can be seen upon longer time exposure of the autoradiogram. (C) Cells were incubated with various concentrations, as indicated, of IGFBP-3 and GST-RAP (100 μg/ml). […] After further incubation for 10 hr, the DNA synthesis of cells was determined by measuring [methyl-^3H] thymidine incorporation into cellular DNA. […]
Mv1Lu cells are a well-established model system for investigating TGF-β activities and receptor functions. […] After further incubation for 10 hr, DNA synthesis of the cells was determined.

Mv1Lu cells = assay: [methyl-3H] thymidine incorporation (DNA synthesis), Mv1Lu cells; assay type: cell-based, mink
DR26 cells = assay: [methyl-3H] thymidine incorporation, DR26 cells; assay type: cell-based, mink; conditions: DR26 cells, in the presence of insulin
Method: (A,B) DR26 cells were incubated with various concentrations as indicated of IGFBP-3 in the absence (A) and presence (B) of various concentrations of insulin. After 18 hr at 37° C., the [methyl-^3H] thymidine incorporation into cellular DNA was determined. (C,D,E) Mv1Lu, DR26 and R1B cells metabolically labeled with ^[…]-orthophosphate for 2 hr were treated with IGFBP-3 (1:g/ml) or insulin (10 nM) (C). DR26 cells metabolically labeled with ^[…]-orthophosphate for 2 hr were treated with or without IGFBP-3 (1 μg/ml) in the presence of various concentrations of TGF-β1 as indicated (D). Mv1Lu cells expressing αIβI and αIβII chimeric receptors (MB102-16 and MB102-9 cells, respectively) metabolically labeled with ^[…]-orthophosphate for 2 hr were treated with or without IGFBP-3 (1 μg/ml) or GM-CSF (1 nM) (E). After 2 hr at 37° C. (in the absence of […]-orthophosphate in the medium), the ^[…]-labeled IRS-2 was immunoprecipitated and analyzed by 7.5% SDS-PAGE and autoradiography. […]
Mv1Lu cells were plated on 24-well clustered dishes and incubated with various concentrations of TGF-β1 or IGFBP-3 in DMEM containing 0.1% fetal calf serum. After incubation at 37° C. for 18 hr, the cells were pulse-labeled with 1 μCi of [methyl-^3H]thymidine at 37° C. for 2 hr and the [methyl-^3H] thymidine incorporation into cellular DNA was determined as described previously (59). […]

IRS-2 [4] = assay: 32P metabolic labeling and immunoprecipitation of IRS-2, Mv1Lu cells; assay type: cell-based, mink; conditions: Mv1Lu, IGFBP-3 1 μg/ml […] then factor 10 nM (TGF-β1 20 pM) 0.5 hr
32D/IR/IRS-2 cells = assay: [methyl-3H] thymidine incorporation, 32D/IR/IRS-2 cells; assay type: cell-based, murine; conditions: insulin 10 nM

Q: How did the “Specific dephosphorylation (mobility change) of IRS-2” value (IRS-2 [1]) turn out when “GM-CSF: granulocyte/macrophage colony-stimulating factor” was run?
A: The value was “only induced specific dephosphorylation (electrophoretic mobility change) of IRS-2 in MB102-9 cells”.

Q: What about the “Specific dephosphorylation (mobility change) of IRS-2” value (IRS-2 [2]) of the same substance?
A: Its value is “induce moderate specific dephosphorylation”.

Q: Which results are given for “RAP: receptor-associated protein, an LRP antagonist which blocks binding of all known ligands to LRP”?
A: ^125I-TGF-β1 binding to purified TβR-V ([3]; 0.1 nM 125I-TGF-β1, […] 0° C.): appeared to inhibit; ^125I-IGFBP-3 binding to purified TβR-V ([3]; 10 nM 125I-IGFBP-3, […] 0° C.): appeared to inhibit; ^125I-TGF-β1 binding to TβR-V and TβR-III (TβR-V; 0.1 nM 125I-TGF-β1): only partially inhibited; IC50, inhibition of ^125I-IGFBP-3 binding to TβR-V (TβR-V; 10 nM 125I-IGFBP-3): ~5 µg/mL

Q: With insulin: insulin [reference compound] as the substance, how does the “Blocking of IGFBP-3-induced growth inhibition” value (Mv1Lu cells; Mv1Lu cells) read?
A: The value was “completely blocked”.

Q: And the “Effect alone on TGF-β1-induced inhibition of DNA synthesis” value (Mv1Lu cells; insulin 10 nM or cyclic RGD peptide 0.01 μg/ml alone)?
A: Its value is “did not block; also recorded: Neither insulin (10 nM) nor the cyclic RGD peptide (0.01 μg/ml) alone affected”.

Q: What about the “Reversal of IGFBP-3 inhibition of DNA synthesis” value (DR26 cells) of the same substance?
A: Its value is “completely reversed”.

Q: And the “Blocking of IGFBP-3-induced specific dephosphorylation of IRS-2 by growth factors/cytokines” value (IRS-2 [4])?
A: The value was “blocked”.

Q: And the “Effect on IGFBP-3-induced growth inhibition” value (32D/IR/IRS-2 cells)?
A: The value was “capable of blocking”.

Q: What about the “Effect on TGF-β1-induced growth inhibition” value (32D/IR/IRS-2 cells) of the same substance?
A: Its value is “partially reversing”.
